According to US8691799B2, “Materials and methods for treatment of cancer and identification of anti-cancer compounds” (priority 2001, dated 2014):
“Also recorded” adds a separate entry of the source.

Experiments:
v-Src/NIH 3T3 tumors = experiment: Antitumor activity, v-Src-transformed NIH 3T3 tumors in nude mice; assay type: in vivo
Description: Antitumor Activity in the Nude Mouse Tumor Xenograft Model. Nude mice and C57 BL-6 black mice (National Cancer Institute, Bethesda, Md.) were maintained in accordance with the Institutional Animal Care and Use Committee (IACUC) procedures and guidelines. v-Src- and oncogenic H-Ras-transformed NIH 3T3, A549, MDA-MB-468 and Calu-1 cells were harvested, resuspended in PBS and injected s.c. into the right and left flank (10×10^6 cells per flank) of 8 week old female nude mice as reported previously (Sun, J. et al. Cancer Res., 1999, 59:4919-4926). Similarly, murine B16-F10 Melanoma cells were injected s.c. into the right and left flank (10^6 cells per flank) of C57 black mice. […] […] The tumor volumes were determined by measuring the length (l) and the width (w) and calculating the volume (V=1w^2/2) as described previously (Sun, J. et al. Cancer Res., 1999, 59:4919-4926). Statistical significance between control and treated animals were evaluated by using Student's t-test. For the mouse survival experiments, C57 BL-6 black mice were implanted s.c. with B16-F10 cells (10^5 to 10^6 cells per flank). […] Percent surviving mice was determined by monitoring the death of mice until all mice died. Two experiments of 12 animals each (6 control and 6 treated with JSI-124) were carried out. For statistical analysis: for each of the two experiments, mice receiving JSI-124 were compared to those receiving vehicle control with respect to survival using the permutation log rank test as implemented in the statistical software package, ProcStatXact (p-values are two sided and exact).

EGFR = biological target: T1, EGFR (Homo sapiens, UniProt P00533); experiment: EGF-stimulation of EGFR tyrosine phosphorylation; assay type: cell-based; details: MCF-10A and EGFR-overexpressing NIH 3T3 cells (data not shown)
T1 construct: EGFR tyrosine phosphorylation in the breast cell line MCF-10A; endogenous in cells; host or cells: MCF-10A; also EGFR-overexpressing NIH 3T3

STAT3 = experiment: Western blotting for STAT3 protein levels; assay type: cell-based, human; details: A549 and MDA-MB-468 cells
Protocol: (§1) Western Blotting. Treated cell samples were lysed in 30 mM Hepes, pH 7.5, 10 mM NaCl, 5 mM MgCl2, 25 mM NaF, 1 mM EGTA, 1% Triton-X-100, 10% glycerol, 2 mM sodium orthovanadate, 10 μg/ml aprotinin, 10 μg/ml soybean trypsin inhibitor, 25 μg/ml leupeptin, 2 mM PMSF, and 6.4 mg/ml p-nitrophenylphosphate. Phospho-STAT3, phospho-AKT, phospho-MEK, and phospho-p42/p44 MAPK antibodies were obtained from Cell Signaling Technologies, Cambridge, Mass. Antibodies to STAT3, JAK2, and phospho-INK were purchased from Santa Cruz Biotechnology, Santa Cruz, Calif. Phospho-JAK2 antibody came from Upstate Biotechnology, Lake Placid, N.Y. Membranes were blocked in either 5% milk in PBS, pH 7.4, containing 0.1% Tween-20 (PBS-T) or 1% BSA in TBS, pH 7.5, containing 0.1% Tween-20 (TBS-T). Phospho-specific antibodies (excepting P-MAPK and P-JNK) were incubated in 1% BSA in TBS-T while all other antibodies were diluted in 5% milk in PBS-T for either 2 hr at room temperature or overnight at 4° C. HRP-conjugated secondary antibodies (Jackson ImmunoResearch) were diluted in 5% milk in either PBS-T or TBS-T at 1:1000 dilution for one hour at room temperature. Western blots were visualized using enhanced chemiluminescence as described previously (Blaskovich, M. A. et al. Nat. Biotechnol., 2000, 18:1065-1070).
Immunoprecipitation of STAT3. […]

Ras/NIH 3T3 tumors = experiment: Antitumor activity, oncogenic Ras-transformed NIH 3T3 tumors in nude mice; assay type: in vivo; details: 1 mg/kg/day i.p.
Description: Antitumor Activity in the Nude Mouse Tumor Xenograft Model. Nude mice and C57 BL-6 black mice (National Cancer Institute, Bethesda, Md.) were maintained in accordance with the Institutional Animal Care and Use Committee (IACUC) procedures and guidelines. v-Src- and oncogenic H-Ras-transformed NIH 3T3, A549, MDA-MB-468 and Calu-1 cells were harvested, resuspended in PBS and injected s.c. into the right and left flank (10×10^6 cells per flank) of 8 week old female nude mice as reported previously (Sun, J. et al. Cancer Res., 1999, 59:4919-4926). Similarly, murine B16-F10 Melanoma cells were injected s.c. into the right and left flank (10^6 cells per flank) of C57 black mice. When tumors reached about 150 mm^3, animals were randomized (five animals per group; two tumors per animal) and dosed i.p. with 0.2 ml once daily. Control animals received DMSO (20%) vehicle whereas treated animals were injected with JSI-124 (1 mg/kg/day) in 20% DMSO in water. The tumor volumes were determined by measuring the length (l) and the width (w) and calculating the volume (V=1w^2/2) as described previously (Sun, J. et al. Cancer Res., 1999, 59:4919-4926). Statistical significance between control and treated animals were evaluated by using Student's t-test. […] Percent surviving mice was determined by monitoring the death of mice until all mice died. […]

phospho-Erk1/2 = experiment: Western blotting for phospho-Erk1/2; assay type: cell-based, human; details: A549 and MDA-MB-468 cells, up to 10 μM
Protocol: as §1

T1 sequence (P00533 25-1210): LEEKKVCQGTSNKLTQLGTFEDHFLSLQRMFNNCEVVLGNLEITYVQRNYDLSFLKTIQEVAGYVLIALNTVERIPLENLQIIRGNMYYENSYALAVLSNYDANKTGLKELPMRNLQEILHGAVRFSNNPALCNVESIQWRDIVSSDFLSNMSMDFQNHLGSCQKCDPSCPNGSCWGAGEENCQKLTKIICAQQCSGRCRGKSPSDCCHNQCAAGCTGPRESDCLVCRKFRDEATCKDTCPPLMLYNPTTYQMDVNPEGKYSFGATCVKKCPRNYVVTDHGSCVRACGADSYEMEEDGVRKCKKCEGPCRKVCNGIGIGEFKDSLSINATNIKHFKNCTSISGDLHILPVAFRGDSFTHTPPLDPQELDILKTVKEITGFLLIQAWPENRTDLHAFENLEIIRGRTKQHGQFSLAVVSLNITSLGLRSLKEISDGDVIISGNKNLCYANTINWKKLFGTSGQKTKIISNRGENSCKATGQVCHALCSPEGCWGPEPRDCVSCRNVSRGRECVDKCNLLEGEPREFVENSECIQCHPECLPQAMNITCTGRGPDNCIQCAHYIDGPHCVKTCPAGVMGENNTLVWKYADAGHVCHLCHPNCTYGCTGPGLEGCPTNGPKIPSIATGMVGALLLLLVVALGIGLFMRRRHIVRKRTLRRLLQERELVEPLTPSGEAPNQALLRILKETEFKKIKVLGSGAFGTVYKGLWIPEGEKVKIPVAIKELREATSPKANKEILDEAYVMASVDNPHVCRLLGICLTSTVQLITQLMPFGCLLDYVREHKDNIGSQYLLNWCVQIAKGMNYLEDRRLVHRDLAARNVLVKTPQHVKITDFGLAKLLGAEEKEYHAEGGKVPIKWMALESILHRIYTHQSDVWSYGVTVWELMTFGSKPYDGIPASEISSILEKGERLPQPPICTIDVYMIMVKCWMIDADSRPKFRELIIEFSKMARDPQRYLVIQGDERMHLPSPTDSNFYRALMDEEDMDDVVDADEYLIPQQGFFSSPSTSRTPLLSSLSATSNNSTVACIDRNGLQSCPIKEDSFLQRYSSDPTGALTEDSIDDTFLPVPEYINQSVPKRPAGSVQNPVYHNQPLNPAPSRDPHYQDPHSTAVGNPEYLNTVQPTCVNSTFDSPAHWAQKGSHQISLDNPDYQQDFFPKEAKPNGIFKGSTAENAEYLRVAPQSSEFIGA

SMILES: CC(C)(O)/C=C/C(=O)[C@](C)(O)[C@H]1[C@H](O)C[C@@]2(C)[C@@H]3CC=C4[C@@H](C=C(O)C(=O)C4(C)C)[C@]3(C)C(=O)C[C@]12C [JSI-124, cucurbitacin I]
- inhibition of growth of v-src transformed NIH 3T3 tumors (in words) (v-Src/NIH 3T3 tumors; 1 mg/Kg/day intraperitoneally): inhibits tumor growth
- inhibition of growth of v-Src/NIH 3T3 tumors (v-Src/NIH 3T3 tumors; 1 mg/kg/day i.p.): 64%
- EGF-stimulated EGFR tyrosine phosphorylation (EGFR): inhibited only minimally
- STAT3 protein levels (STAT3): no effect on the protein levels of STAT3 and JAK2
- growth of Ras/NIH 3T3 tumors (Ras/NIH 3T3 tumors): resistant
- phospho-Erk1/2 levels (phospho-Erk1/2): no inhibitory effect; also recorded: increased the levels of phosphorylation
